From US9428464B2, “Kynurenine-3-monooxygenase inhibitors, pharmaceutical compositions, and methods of use thereof” (CHDI Foundation, Inc., priority 2011, dated 2016)
“And” between values parts separate entries of the source, which are not always exact repeats. Identical values can stand only once.

Tested on: KMO
Test: KMO activity assay: L-Kynurenine hydroxylation to 3-Hydroxy-Kynurenine, quantified by LC/MS
Type: biochemical
Details: compound at 10 uM, footnote: some portion of activity of amides may be due to contribution of acid precursor
Experimental: A generalized procedure for monitoring L-Kynurenine (KYN) hydroxylation to form product 3-Hydroxy-Kynurenine (3OH-KYN) by LC/MS is described below. Product is quantified by multiple reaction monitoring using MS.
A method of monitoring L-Kynurenine (KYN) hydroxylation to form product 3-Hydroxy-Kynurenine (3OH-KYN) by LC/MS is described below. Product is quantified by multiple reaction monitoring.
• Compound: Stock concentrations: 10 mM in 100% DMSO • Enzyme: KMO enzyme prepared at Evotec via mitochondria isolation from CHO-GST HIS KMO cells • Substrate: L-Kynurenine (Sigma: Cat #K3750) • [stock concentration: 10 mM in 100 mM potassium phosphate buffer, pH 7.4]
A method of monitoring L-Kynurenine (KYN) hydroxylation to form 3-Hydroxy-Kynurenine (3OH-KYN) by LC/MS is described. Product is quantified by multiple reaction monitoring (MRM method).

Structure (SMILES)	% Inhibition at 10 uM	% Inhibition at 10 uM (10 µM)
Cl.O=C(Nc1ccc(N2CCNCC2)nc1)c1cc(-c2ccc(Cl)c(Cl)c2)ncn1 [6-(3,4-Dichloro-phenyl)-pyrimidine-4-carboxylic acid (6-piperazin-1-yl-pyridin-3-yl)-amide hydrochloride salt]	87.82%	
O=C(N[C@H]1c2ccccc2C[C@H]1O)c1cc(-c2ccc(Cl)c(Cl)c2)ncn1 [6-(3,4-Dichloro-phenyl)-pyrimidine-4-carboxylic acid ((1S,2R)-2-hydroxy-indan-1-yl)-amide]	97.78%	
C[C@@H](NC(=O)c1cc(-c2ccc(Cl)c(Cl)c2)ncn1)c1ccccc1 [6-(3,4-Dichloro-phenyl)-pyrimidine-4-carboxylic acid ((R)-1-phenyl-ethyl)-amide]	101.25%	
C[C@@H](NC(=O)c1cc(-c2ccc(Cl)c(Cl)c2)ncn1)c1cccnc1 [6-(3,4-Dichloro-phenyl)-pyrimidine-4-carboxylic acid ((R)-1-pyridin-3-yl-ethyl)-amide]	90.86%	
C[C@H](CO)NC(=O)c1cc(-c2ccc(Cl)c(Cl)c2)ncn1 [6-(3,4-Dichloro-phenyl)-pyrimidine-4-carboxylic acid ((R)-2-hydroxy-1-methyl-ethyl)-amide]	97.775%	
CC(NC(=O)c1cc(-c2ccc(Cl)c(Cl)c2)ncn1)[C@@H](C)O (stereo partly drawn) [6-(3,4-Dichloro-phenyl)-pyrimidine-4-carboxylic acid ((R)-2-hydroxy-1-methyl-propyl)-amide]	66.43%	
C[C@@H](O)CNC(=O)c1cc(-c2ccc(Cl)c(Cl)c2)ncn1 [6-(3,4-Dichloro-phenyl)-pyrimidine-4-carboxylic acid ((R)-2-hydroxy-propyl)-amide]	100.71%	
CC(=O)N1CC[C@H](NC(=O)c2cc(-c3ccc(Cl)c(Cl)c3)ncn2)C1 [6-(3,4-Dichloro-phenyl)-pyrimidine-4-carboxylic acid ((S)-1-acetyl-pyrrolidin-3-yl)-amide]		84.87% and 98.54%
C[C@H](NC(=O)c1cc(-c2ccc(Cl)c(Cl)c2)ncn1)C(N)=O [6-(3,4-Dichloro-phenyl)-pyrimidine-4-carboxylic acid ((S)-1-carbamoyl-ethyl)-amide]	47.73%	
CC[C@H](NC(=O)c1cc(-c2ccc(Cl)c(Cl)c2)ncn1)C(N)=O [6-(3,4-Dichloro-phenyl)-pyrimidine-4-carboxylic acid ((S)-1-carbamoyl-propyl)-amide]	87.6%	
C[C@H](NC(=O)c1cc(-c2ccc(Cl)c(Cl)c2)ncn1)c1ccccc1 [6-(3,4-Dichloro-phenyl)-pyrimidine-4-carboxylic acid ((S)-1-phenyl-ethyl)-amide]	102.29%	
C[C@H](NC(=O)c1cc(-c2ccc(Cl)c(Cl)c2)ncn1)c1cccnc1 [6-(3,4-Dichloro-phenyl)-pyrimidine-4-carboxylic acid ((S)-1-pyridin-3-yl-ethyl)-amide]	85.1%	
C[C@H](NC(=O)c1cc(-c2ccc(Cl)c(Cl)c2)ncn1)c1ccncc1 [6-(3,4-Dichloro-phenyl)-pyrimidine-4-carboxylic acid ((S)-1-pyridin-4-yl-ethyl)-amide]	91.79%	
C[C@@H](CO)NC(=O)c1cc(-c2ccc(Cl)c(Cl)c2)ncn1 [6-(3,4-Dichloro-phenyl)-pyrimidine-4-carboxylic acid ((S)-2-hydroxy-1-methyl-ethyl)-amide]	99.59%	
C[C@H](O)CNC(=O)c1cc(-c2ccc(Cl)c(Cl)c2)ncn1 [6-(3,4-Dichloro-phenyl)-pyrimidine-4-carboxylic acid ((S)-2-hydroxy-propyl)-amide]	86.83%	
Cl.O=C(N[C@@H]1CCNC1)c1cc(-c2ccc(Cl)c(Cl)c2)ncn1 [6-(3,4-Dichloro-phenyl)-pyrimidine-4-carboxylic acid (R)-pyrrolidin-3-ylamide hydrochloride salt]	95.94%	
Cl.O=C(N[C@H]1CCNC1)c1cc(-c2ccc(Cl)c(Cl)c2)ncn1 [6-(3,4-Dichloro-phenyl)-pyrimidine-4-carboxylic acid (S)-pyrrolidin-3-ylamide hydrochloride salt]	89.355%	
O=C(N[C@@H]1CCOC1)c1cc(-c2ccc(Cl)c(Cl)c2)ncn1 [6-(3,4-Dichloro-phenyl)-pyrimidine-4-carboxylic acid (tetrahydro-furan-3R-yl)-amide]	41.5%	
O=C(N[C@H]1CCOC1)c1cc(-c2ccc(Cl)c(Cl)c2)ncn1 [6-(3,4-Dichloro-phenyl)-pyrimidine-4-carboxylic acid (tetrahydro-furan-3S-yl)-amide]	53.41%	
O=C(NC1CCOCC1)c1cc(-c2ccc(Cl)c(Cl)c2)ncn1 [6-(3,4-Dichloro-phenyl)-pyrimidine-4-carboxylic acid (tetrahydro-pyran-4-yl)-amide]	55.35%	
O=C(NCC1CCOCC1)c1cc(-c2ccc(Cl)c(Cl)c2)ncn1 [6-(3,4-Dichloro-phenyl)-pyrimidine-4-carboxylic acid (tetrahydro-pyran-4-ylmethyl)-amide]	101.39%	
O=C(Nc1nnco1)c1cc(-c2ccc(Cl)c(Cl)c2)ncn1 [6-(3,4-Dichloro-phenyl)-pyrimidine-4-carboxylic acid [1,3,4]oxadiazol-2-ylamide]	101.93%	
CC(NC(=O)c1cc(-c2ccc(Cl)c(Cl)c2)ncn1)c1ccc2c(c1)NC(=O)CO2 (centres unmarked) [6-(3,4-Dichloro-phenyl)-pyrimidine-4-carboxylic acid [1-(3-oxo-3,4-dihydro-2H-benzo[1,4]oxazin-6-yl)-ethyl]-amide]	99.66%	
O=C1CN(C(=O)CNC(=O)c2cc(-c3ccc(Cl)c(Cl)c3)ncn2)CCN1 [6-(3,4-Dichloro-phenyl)-pyrimidine-4-carboxylic acid [2-oxo-2-(3-oxo-piperazin-1-yl)-ethyl]-amide]	62.23%	
CC1CN(c2cccc(NC(=O)c3cc(-c4ccc(Cl)c(Cl)c4)ncn3)c2)CC(C)O1 (centres unmarked) [6-(3,4-Dichloro-phenyl)-pyrimidine-4-carboxylic acid [3-(2,6-dimethyl-morpholin-4-yl)-phenyl]-amide]	57.56%	
CN1CCN(c2cccc(NC(=O)c3cc(-c4ccc(Cl)c(Cl)c4)ncn3)c2)CC1.Cl [6-(3,4-Dichloro-phenyl)-pyrimidine-4-carboxylic acid [3-(4-methyl-piperazin-1-yl)-phenyl]-amide hydrochloride salt]	85.89%	
CN1CCN(c2cccc(NC(=O)c3cc(-c4ccc(Cl)c(Cl)c4)ncn3)c2)CC1 [6-(3,4-Dichloro-phenyl)-pyrimidine-4-carboxylic acid [3-(4-methyl-piperazin-1-yl)-phenyl]-amide]	75.48%	
CC1CN(c2ccc(NC(=O)c3cc(-c4ccc(Cl)c(Cl)c4)ncn3)cc2)CC(C)O1.Cl (centres unmarked) [6-(3,4-Dichloro-phenyl)-pyrimidine-4-carboxylic acid [4-(2,6-dimethyl-morpholin-4-yl)-phenyl]-amide hydrochloride salt]	97.61%	
Cl.O=C(Nc1ccc(OCCN2CCOCC2)cc1)c1cc(-c2ccc(Cl)c(Cl)c2)ncn1 [6-(3,4-Dichloro-phenyl)-pyrimidine-4-carboxylic acid [4-(2-morpholin-4-yl-ethoxy)-phenyl]-amide hydrochloride salt]	90.48%	
